{"source": "patent US5962487A", "about": "“Antipicornaviral compounds and methods for their use and preparation” (Agouron Pharmaceuticals, Inc., priority 1997, dated 1999)", "key": {"CVB-3": {"system": "CVB-3", "assay": "Anticoxsackieviral HI-HeLa Cell Culture Assay, CVB-3", "assay_type": "cell-based, Coxsackie strain B-3", "method": "(§1) The ability of compounds to protect cells against CVA-21 or CVB-3 infection was measured by the XTT dye reduction method. Briefly, HI-HeLa cells were infected with CVA-21 or CVB-3 at a multiplicity of infection (m.o.i.) of 0.05 (CVA-21) and 0.08 (CVB-3) or mock-infected with medium only. Infected or uninfected cells were resuspended at 4×10^4 cells per mL and incubated with appropriate concentrations of drug. One day later, XTT/PMS was added to test plates, and the amount of formazan produced was quantified spectrophotometrically at 450/650 nm. The EC50 was calculated as the concentration of drug that increased the percentage of formazan production in drug-treated, virus-infected cells to 50% of that produced by drug-free, uninfected cells. The 50% cytotoxic dose (CC50) was calculated as the concentration of drug that decreased the percentage of formazan produced in drug-treated, uninfected cells to 50% of that produced in drug-free, uninfected cells. The therapeutic index (TI) was calculated by dividing the CC50 by the EC50.\n(§2) The Coxsackie strains A-21 (CVA-21) and B-3 (CVB-3) were purchased from American Type Culture Collection (ATCC). Virus stocks were propagated and antiviral assays were performed in HI-HeLa cells (ATCC). Cells were grown in Minimal Essential Medium with 10% fetal bovine serum."}, "[1]": {"target": "T1, Rhinovirus 3C protease (RVP) serotype 16 (Human rhinovirus 16, UniProt Q82122)", "T1 construct": "Recombinant Rhinovirus 3C proteases from serotypes 14, 16, 2 or 89 were prepared; made in house", "T1 sequence (Q82122 1511-1693)": "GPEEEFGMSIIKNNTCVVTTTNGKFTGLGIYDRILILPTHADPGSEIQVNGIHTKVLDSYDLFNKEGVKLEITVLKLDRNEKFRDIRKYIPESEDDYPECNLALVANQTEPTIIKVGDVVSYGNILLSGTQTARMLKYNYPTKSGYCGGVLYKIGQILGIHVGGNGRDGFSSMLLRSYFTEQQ", "assay": "Inhibition of Rhinovirus Protease, serotype 16 (FRET assay)", "assay_type": "biochemical", "settings": "enzyme start experiments, read-out: kobs/I", "method": "(§3) Stock solutions (50 mM, in DMSO) of various compounds were prepared; dilutions were in the same solvent. Recombinant Rhinovirus 3C proteases from serotypes 14, 16, 2 or 89 were prepared by the following standard chromatographic procedures: (1) ion exchange using Q Sepharose Fast Flow from Pharmacia; (2) affinity chromatography using Affi-Gel Blue from Biorad; and (3) sizing using Sephadex G-100 from Pharmacia. Assays contained 2% DMSO, 50 mM tris pH 7.6, 1 mM EDTA, a compound at the indicated concentrations, approximately 1 μM substrate, and 50-100 nM protease. For Ki determinations, the compound and the enzyme were preincubated for 10 minutes at 30° C. prior to addition of the substrate (substrate start). The kobs/I values were obtained from reactions initiated by addition of enzyme rather than substrate. RVP activity is measured in the fluorescence resonance energy transfer assay. The substrate was (N-terminal) DABCYL-(Gly-Arg-Ala-Val-Phe-Gln-Gly-Pro-Val-Gly)-EDANS. In the uncleaved peptide, the EDANS fluorescence was quenched by the proximal DABCYL moiety. When the peptide was cleaved, the quenching was relieved, and activity was measured as an increase in fluorescence signal.\n(§4) In the above table, all data is for RVP serotype-14 unless otherwise noted in parentheses. All strains of human rhinovirus (HRV) were purchased from American Type Culture Collection (ATCC), except for serotype 14, which was produced from the infectious cDNA clone constructed and supplied to us by Dr. Roland Rueckert at the Institute for Molecular Virology, University of Wisconsin, Madison, Wis. The column designated INHIB represents the percent inhibition, with the concentration of the compound in μM indicated in parentheses, unless Ki was assigned as designated by (Ki), at 10 minute preincubation with 50 nM RVP prior to addition of substrate was used. The data in the column designated kobs/I was measured from progress curves in enzyme start experiments."}, "ECHO-11": {"system": "ECHO-11", "assay": "Echovirus-11 MRC5 Cell Culture Assay", "assay_type": "cell-based, Echovirus strain 11", "method": "(§5) The Echovirus strain 11 (ECHO-11) and Enterovirus strain 70 (ENT-70) were purchased from American Type Culture Collection (ATCC). Virus stocks were propagated and antiviral assays were performed in MRC5 cells (ATCC). Cells were grown in Minimal Essential Medium with 10% fetal bovine serum.\nas §1, with “ECHO-11” for “CVA-21”, “ENT-70” for “CVB-3”, “MRC5” for “HI-HeLa”, “0.0013 (ECHO-11)” for “0.05 (CVA-21)”, “0.0017 (ENT-70)” for “0.08 (CVB-3)”, “2×10^4” for “4×10^4”"}, "[2]": {"target": "T2, Rhinovirus 3C protease (RVP) serotype 2 (Human rhinovirus 2, UniProt P04936)", "T2 construct": "Recombinant Rhinovirus 3C proteases from serotypes 14, 16, 2 or 89 were prepared; made in house", "T2 sequence (P04936 1508-1690)": "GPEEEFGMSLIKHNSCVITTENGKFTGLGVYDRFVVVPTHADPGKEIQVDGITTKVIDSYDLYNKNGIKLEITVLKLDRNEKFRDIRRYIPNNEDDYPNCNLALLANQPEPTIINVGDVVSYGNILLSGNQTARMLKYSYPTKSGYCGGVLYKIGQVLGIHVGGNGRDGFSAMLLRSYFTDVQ", "assay": "Inhibition of Rhinovirus Protease, serotype 2 (FRET assay)", "assay_type": "biochemical", "settings": "enzyme start experiments, read-out: kobs/I", "method": "as §3, §4"}, "MRC5 cells": {"system": "MRC5 cells", "assay": "in vitro", "assay_type": "cell-based", "method": "as §5\nas §1, with “ECHO-11” for “CVA-21”, “ENT-70” for “CVB-3”, “MRC5” for “HI-HeLa”, “0.0013 (ECHO-11)” for “0.05 (CVA-21)”, “0.0017 (ENT-70)” for “0.08 (CVB-3)”, “2×10^4” for “4×10^4”"}, "in vitro [3]": {"assay": "in vitro", "assay_type": "cell-based", "settings": "human, mrc5 cells", "method": "as §5\nas §1, with “ECHO-11” for “CVA-21”, “ENT-70” for “CVB-3”, “MRC5” for “HI-HeLa”, “0.0013 (ECHO-11)” for “0.05 (CVA-21)”, “0.0017 (ENT-70)” for “0.08 (CVB-3)”, “2×10^4” for “4×10^4”"}, "ENT-70": {"system": "ENT-70", "assay": "Enterovirus-70 MRC5 Cell Culture Assay", "assay_type": "cell-based, Enterovirus strain 70", "method": "as §5\nas §1, with “ECHO-11” for “CVA-21”, “ENT-70” for “CVB-3”, “MRC5” for “HI-HeLa”, “0.0013 (ECHO-11)” for “0.05 (CVA-21)”, “0.0017 (ENT-70)” for “0.08 (CVB-3)”, “2×10^4” for “4×10^4”"}, "[4]": {"target": "T3, Rhinovirus 3C protease (RVP) serotype-14 (Human rhinovirus 14, UniProt P03303)", "T3 construct": "Recombinant Rhinovirus 3C proteases from serotypes 14, 16, 2 or 89 were prepared; made in house", "T3 sequence (P03303 1538-1719)": "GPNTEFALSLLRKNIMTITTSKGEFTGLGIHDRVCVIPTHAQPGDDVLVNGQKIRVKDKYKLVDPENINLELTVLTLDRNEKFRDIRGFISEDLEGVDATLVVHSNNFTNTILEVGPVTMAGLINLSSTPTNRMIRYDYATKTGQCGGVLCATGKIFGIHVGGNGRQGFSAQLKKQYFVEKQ", "assay": "Inhibition of Rhinovirus Protease, serotype 14 (FRET assay)", "assay_type": "biochemical", "settings": "read-out: kobs/I", "outline": "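Recombinant HRV 3C protease (50–100 nM) in 50 mM tris pH 7.6, 1 mM EDTA, 2% DMSO, with ~1 μM DABCYL-GRAVFQGPVG-EDANS FRET substrate; cleavage read as fluorescence increase. Ki: compound and enzyme preincubated 10 min at 30° C before substrate start; kobs/I from enzyme-start progress curves. Values are percent inhibition at stated μM, or Ki.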"}, "in vitro [5]": {"assay": "in vitro", "assay_type": "cell-based", "settings": "human, hi-hela cells", "method": "as §1, §2"}}, "data": [{"smiles": "CCOC(=O)/C=C/[C@H](CCC(N)=O)NC(=O)[C@H](Cc1ccccc1)N(C)C(=O)[C@H](CC(C)C)NC(=O)OCc1ccccc1", "note": "[Compound 2, Ethyl-3-(CBZ-L-Leu-L-N-Me-Phe-L-Gln)-E-Propenoate]", "values": [{"measurement": "EC50", "setting": "CVB-3; 24 h, CVB-3 infection of Hi-HeLa cells, XTT, one day", "value": 2, "unit": "µM"}, {"measurement": "TI", "setting": "CVB-3; CC50/EC50, CVB-3", "value": 28}, {"measurement": "kinact/KI", "setting": "[1]", "value": 1040, "unit": "M⁻¹ s⁻¹"}, {"measurement": "TI", "setting": "ECHO-11; CC50/EC50, ECHO-11, 1440 min", "value": 18}, {"measurement": "EC50", "setting": "ECHO-11; Echovirus, 24 h, ECHO-11 infection of MRC5 cells, XTT, one day", "value": 3.1, "unit": "µM"}, {"measurement": "kinact/KI", "setting": "[2]", "value": 617, "unit": "M⁻¹ s⁻¹"}, {"measurement": "CC50", "setting": "MRC5 cells", "value": 56, "unit": "µM"}, {"measurement": "CC50 at 24 h", "setting": "in vitro [3]", "value": 56, "unit": "µM"}, {"measurement": "TI", "setting": "ENT-70; CC50/EC50, ENT-70, 1440 min", "value": 93}, {"measurement": "EC50", "setting": "ENT-70; Enterovirus, 24 h, ENT-70 infection of MRC5 cells, XTT, one day", "value": 0.6, "unit": "µM"}, {"measurement": "kinact/KI", "setting": "[4]", "value": 5300, "unit": "M⁻¹ s⁻¹"}, {"measurement": "CC50 at 24 h", "setting": "in vitro [5]", "value": 56, "unit": "µM"}]}]}
